Measurements taken from PubChem BioAssay (NCI).
Values after ≈ are worked out from the molar mass of the structure shown. Values joined by “and” are separate entries in the source; they are usually repeats but may differ in a detail not shown here. Identical values can stand only once.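 All cell lines were grown in 96-well plates and treated with compound for 48 hours. At the GI50, growth is halved. TGI: total growth inhibition.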

The compounds below were run on P388 leukemia (assay: NCI tumour cell line growth inhibition, 48 h).

| SMILES | GI50 |
| --- | --- |
| Cc1c[nH]c2c(O)cc3c(c12)[C@H](CCl)CN3C(=O)c1cc2cc(NC(=O)Nc3ccc4[nH]c(C(=O)N5C[C@@H](CCl)c6c5cc(O)c5[nH]cc(C)c65)cc4c3)ccc2[nH]1 | 0.000887 ng/mL and 0.888 ng/mL |

Each compound was assayed on P388/ADR leukemia (assay: NCI tumour cell line growth inhibition, 48 h).

| SMILES | GI50 [ng/mL] | TGI [ng/mL] |
| --- | --- | --- |
| Cc1c[nH]c2c(O)cc3c(c12)[C@H](CCl)CN3C(=O)c1cc2cc(NC(=O)Nc3ccc4[nH]c(C(=O)N5C[C@@H](CCl)c6c5cc(O)c5[nH]cc(C)c65)cc4c3)ccc2[nH]1 | 0.888 (≈ 0.00109 µM) | 83 (≈ 0.102 µM) |

The compounds below were run on RXF-631 renal (assay: NCI tumour cell line growth inhibition, 48 h).

| SMILES | TGI [µM] |
| --- | --- |
| O=[N+]([O-])c1cccc(/C=N\NS(=O)(=O)c2ccc(Cl)cc2)c1O | > 100 |
| CCOC(=O)Nc1nc2ccc(Cn3cccc3)cc2[nH]1 | > 100 |
| CC[C@@H]1OC2(C)CC(S(=O)(=O)c3ccccc3O)CC1O2 (stereo partly specified) | > 100 |
| CCN(CC)CC(O)CNc1ccc(NCC2CO2)c2c1C(=O)c1ccccc1C2=O (stereo unspecified) | 2.24 |
| Cc1c(NC(=O)C(C)(C)Br)c(=O)oc2c(C)c3occc(=O)c3cc12 | > 100 |
| CC1=C(C(=O)Nc2ccccc2C)C(c2ccc(Cl)c(Cl)c2)C(C(=O)Nc2ccccc2C)=C(C)N1 | 73.2 |
| CC(C)CS(=O)(=O)/C(=C(\c1ccc(Br)cc1)S(=O)(=O)CC(C)C)c1ccc(Br)cc1 | > 100 |
| NC(=O)C(=Cc1ccc(C(O)P(=O)(O)O)cc1)C(N)=O (stereo unspecified) | > 100 |
| CCOC(=O)NC(=O)c1cn(CC(=O)NCC(=O)NCC(=O)NCCCN2CCN(CCCNC(=O)CNC(=O)CNC(=O)Cn3cc(C(=O)NC(=O)OCC)c(=O)[nH]c3=O)CC2)c(=O)[nH]c1=O | > 100 |
| Cc1[nH]c2ccccc2c1C1Cc2ccccc2N1C(=O)/C=C\C(=O)O (stereo unspecified) | > 100 |
| NNC(=O)/C(=C/c1ccc(Cl)c(Cl)c1)NC(=O)c1ccccc1 | > 100 |
| c1ccc2c(c1)CCC/C2=N\OCC1CO1 (stereo unspecified) | > 100 |
| CCN(CC)CCCC(C)Nc1c2ccc(Cl)cc2nc2ccc(OC)cc12 (stereo unspecified) | 3.55 |
| O=C1OC(CC(=O)c2ccc(Cl)c(Cl)c2)C(Cl)=C1Cl (stereo unspecified) | > 100 |
| COC(=O)C1C(C(=O)OC)C2(OC)c3ccccc3-c3ccccc3C12 (stereo unspecified) | > 100 |
| O=C1c2ccccc2-c2cccc3ccc(Cc4ccc5ccccc5c4)c1c23 | > 100 |
| O=S(=O)(N/N=C/c1ccc(/C=N/NS(=O)(=O)c2ccccc2)cc1)c1ccccc1 | > 100 |
| CCCCOC(=O)NC(=O)c1cn(CCCOC(=O)CCCCCCCCC(=O)OCCCn2cc(C(=O)NC(=O)OCCCC)c(=O)[nH]c2=O)c(=O)[nH]c1=O | > 100 |
